Results on one compound are retold here after publication PMC6934184, “Selective DNA-PKcs inhibition extends the therapeutic index of localized radiotherapy and chemotherapy” (The Journal of Clinical Investigation, 2019).

The experiment addresses T1, RPS6KA5 (MSK1) (Homo sapiens, UniProt O75582).
T1 construct: purchased Thermo Fisher Scientific (Life Technologies) SelectScreen
Kind of experiment: SelectScreen Z'LYTE. The experiment is classed as biochemical. The gist of the method: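 SelectScreen broad panel; activity (Z'LYTE, Adapta) plus binding formats. ATP: Km app for CSF1R Z'LYTE; 10 for CAMK1 Adapta. Readout = % per kinase.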

T1 sequence (O75582 whole entry): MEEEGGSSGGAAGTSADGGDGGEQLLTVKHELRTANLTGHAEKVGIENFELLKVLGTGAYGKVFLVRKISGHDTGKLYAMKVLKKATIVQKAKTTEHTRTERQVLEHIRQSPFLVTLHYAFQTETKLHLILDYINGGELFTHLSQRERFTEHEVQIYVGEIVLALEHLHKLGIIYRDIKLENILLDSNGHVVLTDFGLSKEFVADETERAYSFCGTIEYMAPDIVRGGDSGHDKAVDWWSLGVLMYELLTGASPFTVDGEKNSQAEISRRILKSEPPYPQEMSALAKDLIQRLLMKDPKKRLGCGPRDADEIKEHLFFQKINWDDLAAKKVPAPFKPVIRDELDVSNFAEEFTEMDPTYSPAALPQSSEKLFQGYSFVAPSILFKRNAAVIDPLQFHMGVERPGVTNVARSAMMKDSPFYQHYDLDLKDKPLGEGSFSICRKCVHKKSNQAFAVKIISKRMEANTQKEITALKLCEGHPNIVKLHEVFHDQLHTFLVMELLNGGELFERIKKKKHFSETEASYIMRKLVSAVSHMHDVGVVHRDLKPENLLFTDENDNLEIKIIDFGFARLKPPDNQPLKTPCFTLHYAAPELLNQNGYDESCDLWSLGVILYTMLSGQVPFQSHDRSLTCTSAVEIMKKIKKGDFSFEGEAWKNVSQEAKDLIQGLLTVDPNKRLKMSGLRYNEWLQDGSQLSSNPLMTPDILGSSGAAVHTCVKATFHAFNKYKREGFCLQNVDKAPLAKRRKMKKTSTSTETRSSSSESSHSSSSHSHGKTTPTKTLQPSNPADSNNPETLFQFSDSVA

Broadly, the inhibition is the relative decrease from the control value, in per cent. Turning to `CN(C(=O)CN1CCOCC1)c1ccc2sc3c(-c4cccc5c(=O)cc(N6CC7CCC(C6)O7)oc45)cccc3c2c1` [NU5455], at 1 µM the inhibition was 7.4%.
